Measured values: ChEMBL document CHEMBL2150866, “Irreversible 4-Aminopiperidine Transglutaminase 2 Inhibitors for Huntington's Disease” (ACS Med Chem Lett, 2012)
pIC50: −log10 of the molar value.

Experiments:
[1] = target: T1, Protein-glutamine gamma-glutamyltransferase (Homo sapiens, UniProt P21980); test: Inhibition of human TGM2
T1 sequence (P21980 whole entry): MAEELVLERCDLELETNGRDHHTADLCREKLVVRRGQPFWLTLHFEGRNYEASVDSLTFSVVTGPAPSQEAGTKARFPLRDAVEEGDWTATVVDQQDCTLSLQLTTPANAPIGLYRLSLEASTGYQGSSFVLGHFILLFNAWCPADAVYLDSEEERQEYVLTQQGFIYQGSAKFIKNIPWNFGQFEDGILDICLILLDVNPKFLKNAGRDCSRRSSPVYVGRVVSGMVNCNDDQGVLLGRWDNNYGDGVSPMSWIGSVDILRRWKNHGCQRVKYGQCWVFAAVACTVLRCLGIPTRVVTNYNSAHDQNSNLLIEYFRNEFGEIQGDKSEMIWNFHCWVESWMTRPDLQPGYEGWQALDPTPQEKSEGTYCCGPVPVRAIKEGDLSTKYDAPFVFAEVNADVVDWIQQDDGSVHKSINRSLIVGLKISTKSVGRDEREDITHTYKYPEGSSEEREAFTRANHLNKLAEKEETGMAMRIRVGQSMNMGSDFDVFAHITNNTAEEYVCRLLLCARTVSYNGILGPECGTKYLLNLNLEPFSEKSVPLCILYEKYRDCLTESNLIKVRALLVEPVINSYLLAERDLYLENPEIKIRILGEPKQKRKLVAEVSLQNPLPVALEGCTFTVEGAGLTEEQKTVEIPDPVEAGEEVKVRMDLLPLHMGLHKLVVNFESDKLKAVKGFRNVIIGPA

[2] = Half life in mouse plasma at 1 uM; assay type: ADME, cell-free
[3] = Half life in human plasma at 1 uM; assay type: ADME, cell-free
[4] = Chemical stability of the compound in phosphate buffer at pH 7.4 assessed as GSH adduct formation after 120 hrs; assay type: physicochemical; conditions: pH 7.4, 120 h

Compound | pIC50 [1] | half-life at 1 µM [2] | half-life at 1 µM [3] | Stability [4]
C=CC(=O)N[C@@H]1CCCN(S(=O)(=O)c2ccc(NC(=O)OCc3ccccc3)cc2)C1 | < 4.10 | > 6 h | > 6 h | 
C=CC(=O)NC1CCN(S(=O)(=O)c2ccc(C(=O)NCCc3cccc4c3OCC4)cc2)CC1 | 6.59 | > 6 h | > 6 h | 
C=CC(=O)NC1CCN(S(=O)(=O)c2ccc(C(=O)NCCc3ccc4cccnc4c3)cc2)CC1 | 6.51 | > 6 h | > 6 h | 
C=CC(=O)NC1CCN(S(=O)(=O)c2ccc(C(=O)NC3Cc4ccccc4C3)cc2)CC1 | 6.70 | > 6 h | > 6 h | 
C=CC(=O)N[C@@H]1CCN(S(=O)(=O)c2ccc(NC(=O)OCc3ccccc3)cc2)C1 | 4.52 | > 6 h | > 6 h | 
C=CC(=O)NC1CCN(S(=O)(=O)c2ccc(C(=O)N(C)CCc3ccccc3)cc2)CC1 | 6.34 | > 6 h | > 6 h | 
C=CC(=O)NC1CCN(S(=O)(=O)c2ccc(C(=O)N[C@@H]3C[C@H]3c3ccccc3)cc2)CC1 (racemic) | 6.39 | > 6 h | > 6 h | 
C=CC(=O)N[C@H]1CCN(S(=O)(=O)c2ccc(NC(=O)OCc3ccccc3)cc2)C1 | 4.26 | > 6 h | > 6 h | 
C=CC(=O)NC1CCN(S(=O)(=O)c2ccc(C(=O)NCCc3ccc(C(C)(C)C)cc3)cc2)CC1 | 4.66 | > 6 h | > 6 h | 
C=CC(=O)NC1CCN(S(=O)(=O)c2ccc(C(=O)N(C)Cc3ccccc3)cc2)CC1 | 6.20 | > 6 h | > 6 h | 
C=CC(=O)NC1CCN(S(=O)(=O)c2ccc(C(=O)N3CCc4ccccc4C3)cc2)CC1 | 6.21 | > 6 h | > 6 h | 
C=CC(=O)NC1CCN(S(=O)(=O)c2ccc(C(=O)NCCc3ccc(Cl)cc3)cc2)CC1 | 6.55 | > 6 h | > 6 h | 
C=CC(=O)NC1CCN(S(=O)(=O)c2ccc(C(=O)NCCc3ccccc3OC)cc2)CC1 | 6.64 | > 6 h | > 6 h | 
C=CC(=O)N[C@H]1CCCN(S(=O)(=O)c2ccc(NC(=O)OCc3ccccc3)cc2)C1 | < 4.10 | > 6 h | > 6 h | 
C=CC(=O)NC1CCN(Cc2ccc(NC(=O)OCc3ccccc3)cc2)CC1 | 5.80 | > 6 h | > 6 h | 
C=CC(=O)NC1CN(S(=O)(=O)c2ccc(NC(=O)OCc3ccccc3)cc2)C1 | 5.80 | > 6 h | > 6 h | 
C=CC(=O)NC1CCN(S(=O)(=O)c2ccc(C(=O)NCCc3cccc4c3OCO4)cc2)CC1 | 6.55 | > 6 h | > 6 h | 
C=CC(=O)N1CCN(S(=O)(=O)c2ccc(NC(=O)OCc3ccccc3)cc2)CC1 |  | > 6 h | > 6 h | 

Compound | pIC50 [1] | half-life at 1 µM [2] | half-life at 1 µM [3] | Stability [4]
C=CC(=O)NC1CCN(C(=O)c2ccc(NC(=O)OCc3ccccc3)cc2)CC1 | 5.05 | > 6 h | > 6 h | 
C=CC(=O)NC1CCN(S(=O)(=O)c2ccc(C(=O)NCCc3ccc(C)c(C)c3)cc2)CC1 | 6.74 | > 6 h | > 6 h | 
Nc1ccc(S(=O)(=O)N2CCN(C(=O)C3CC3)CC2)cc1 | < 4.10 | > 24 h | > 6 h | 
C=CC(=O)NC1CCN(S(=O)(=O)c2ccc(C(=O)NCCCc3ccccc3)cc2)CC1 | 6.11 | > 6 h | > 6 h | 
C=CC(=O)NC1CCN(S(=O)(=O)c2ccc(C(=O)NCCN3CCOCC3)cc2)CC1 | 6.42 | > 6 h | > 6 h | 
C=CC(=O)NC1CCN(S(=O)(=O)c2ccc(C(=O)NCc3cccc4ccccc34)cc2)CC1 | 6.77 | > 6 h | > 6 h | 
C=CC(=O)NCC1CCN(S(=O)(=O)c2ccc(NC(=O)OCc3ccccc3)cc2)CC1 | 5.29 | > 6 h | > 6 h | 
C=CC(=O)NC1CCN(S(=O)(=O)c2ccc(C(=O)NCCc3cccc(Cl)c3)cc2)CC1 | 6.77 | > 6 h | > 6 h | Stable
C=CC(=O)NC1CCN(S(=O)(=O)c2ccc(C(=O)NCc3ccccc3)cc2)CC1 | 6.70 | > 6 h | > 6 h | 
C=CC(=O)NC1CCN(S(=O)(=O)c2ccc(C(=O)NCCc3ccc4ccccc4c3)cc2)CC1 | 6.55 | > 6 h | > 6 h | 
C=CC(=O)NC1CCN(S(=O)(=O)c2ccc(C(=O)NCCc3ccc(-c4ccccc4)cc3)cc2)CC1 | 4.24 | > 6 h | > 6 h | 
C=CC(=O)NCCN(C)S(=O)(=O)c1ccc(NC(=O)OCc2ccccc2)cc1 | 5.48 | > 6 h | > 6 h | 
C=CC(=O)NC1CCN(S(=O)(=O)c2ccc(C(=O)NCCC3CCCCC3)cc2)CC1 | 6.85 | > 6 h | > 6 h | 
C=CC(=O)NC1CCN(S(=O)(=O)c2ccc(C(=O)NCCc3ccc(C(F)(F)F)cc3)cc2)CC1 | 6.26 | > 6 h | > 6 h | 
C=CC(=O)NC1CCN(S(=O)(=O)c2ccc(C(=O)NC3CCCc4ccccc43)cc2)CC1 (stereo not drawn) | 6.49 | > 6 h | > 6 h | 
C=CC(=O)NC1CCN(S(=O)(=O)c2ccc(C(=O)NCCc3ccc(OC)c(OC)c3)cc2)CC1 | 6.34 | > 6 h | > 6 h | 
C=CC(=O)NC1CCN(S(=O)(=O)c2ccc(C(=O)NCCC34CC5CC(CC(C5)C3)C4)cc2)CC1 | 6.18 | > 6 h | > 6 h | 
C=CC(=O)NC1CCN(S(=O)(=O)c2ccc(C(=O)NCCC3CCOCC3)cc2)CC1 | 6.44 | > 6 h | > 6 h | 
